Measured values: ChEMBL document CHEMBL3046671, “Molecular design, synthesis and biological activities of amidines as new ketol-acid reductoisomerase inhibitors” (Chin Chem Lett, 2008)
Structures can show the parent of a compound that is named as a salt. Activity calls are given as the source filed them. No cut-off for these calls is given here.

What was measured:
[1] = target: Ketol-acid reductoisomerase, chloroplastic (Oryza sativa subsp. japonica, UniProt Q65XK0); experiment: Inhibition of Oryza sativa KARI (rice)
[2] = system: Echinochloa crus-galli; experiment: Herbicidal activity against Echinochloa crus-galli (barnyard grass) assessed as inhibition at 100 ug/ml by barnyardgrass cup test; assay type: functional
[3] = system: Brassica napus; experiment: Herbicidal activity against Brassica napus (oilseed rape) assessed as inhibition at 100 ug/ml by rape toot test; assay type: functional
[4] = system: Echinochloa crus-galli; experiment: Herbicidal activity against Echinochloa crus-galli (barnyard grass) assessed as inhibition at 10 ug/ml by barnyardgrass cup test; assay type: functional
[5] = system: Brassica napus; experiment: Herbicidal activity against Brassica napus (oilseed rape) assessed as inhibition at 10 ug/ml by rape toot test; assay type: functional
[6] = target: T1, Ketol-acid reductoisomerase (NADP(+)) (Escherichia coli (strain K12), UniProt P05793); experiment: Inhibition of Escherichia coli KARI
T1 sequence (P05793 whole entry): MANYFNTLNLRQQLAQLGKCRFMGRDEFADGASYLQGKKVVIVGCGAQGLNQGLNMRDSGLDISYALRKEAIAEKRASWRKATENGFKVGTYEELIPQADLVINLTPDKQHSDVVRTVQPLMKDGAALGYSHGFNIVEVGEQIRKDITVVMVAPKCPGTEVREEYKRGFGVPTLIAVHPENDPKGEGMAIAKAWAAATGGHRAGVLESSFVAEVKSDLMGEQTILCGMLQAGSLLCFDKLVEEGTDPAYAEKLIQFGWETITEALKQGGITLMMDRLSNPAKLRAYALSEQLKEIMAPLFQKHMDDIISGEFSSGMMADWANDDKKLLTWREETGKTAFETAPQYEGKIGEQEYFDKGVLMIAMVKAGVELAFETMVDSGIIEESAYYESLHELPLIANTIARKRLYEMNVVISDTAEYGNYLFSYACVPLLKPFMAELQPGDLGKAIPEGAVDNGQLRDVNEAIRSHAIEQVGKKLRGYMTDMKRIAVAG

Ketol-acid reductoisomerase, chloroplastic, sequence (Q65XK0 whole entry): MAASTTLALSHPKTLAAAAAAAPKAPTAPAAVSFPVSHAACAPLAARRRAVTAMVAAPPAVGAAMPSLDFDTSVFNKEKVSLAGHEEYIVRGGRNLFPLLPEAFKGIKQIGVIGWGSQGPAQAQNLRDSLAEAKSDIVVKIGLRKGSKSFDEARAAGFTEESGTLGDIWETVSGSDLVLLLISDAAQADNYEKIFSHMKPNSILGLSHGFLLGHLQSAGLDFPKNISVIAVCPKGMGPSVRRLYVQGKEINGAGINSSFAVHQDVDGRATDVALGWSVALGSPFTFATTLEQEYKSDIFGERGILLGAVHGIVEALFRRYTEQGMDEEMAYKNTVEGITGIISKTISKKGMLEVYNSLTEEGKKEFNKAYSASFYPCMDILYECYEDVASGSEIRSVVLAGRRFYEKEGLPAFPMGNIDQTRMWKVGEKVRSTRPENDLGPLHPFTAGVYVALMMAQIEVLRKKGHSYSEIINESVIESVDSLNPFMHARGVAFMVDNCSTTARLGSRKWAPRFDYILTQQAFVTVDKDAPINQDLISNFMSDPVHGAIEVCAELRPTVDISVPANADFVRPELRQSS

SMILES | Ki [1] [µM] | inhibition at 100 µg/mL [2] [%] | inhibition at 100 µg/mL [3] [%] | inhibition at 10 µg/mL [4] [%] | inhibition at 10 µg/mL [5] [%] | inhibition [4] | Ki [6] [µM]
N=C(N)c1ccc(OCc2ccc(Cl)cc2Cl)cc1 | 142 | 62.8 | 95.6 | 21.8 | 33.7 |  | 
N=C(N)c1ccc(OCc2cccc(Cl)c2)cc1 | 213 | 56.8 | 95.2 | 21.5 | 31.9 |  | 
N=C(N)c1ccc(OCc2ccc(Cl)cc2)cc1 | 411 |  |  |  |  |  | 
N=C(N)c1ccc(OCc2ccccc2F)cc1 | 965 |  |  |  |  |  | 
N=C(N)c1ccc(OCc2ccccn2)cc1 | > 649 |  |  |  |  |  | 
C=CCOc1ccc(C(=N)N)cc1 [4-(ALLYLOXY)BENZIMIDAMIDE HYDROCHLORIDE] | > 1710 |  |  |  |  |  | 
N=C(N)c1ccc(OCc2ccccc2)cc1 [4-(BENZYLOXY)BENZIMIDAMIDE HYDROCHLORIDE] | > 1380 |  |  |  |  |  | 
CCCCCCCOc1ccc(C(=N)N)cc1 [4-(HEPTYLOXY)BENZIMIDAMIDE HYDROCHLORIDE] | 61 | 53 | 96.3 | 20.1 | 30.1 |  | 
CCCCCCOc1ccc(C(=N)N)cc1 [4-(HEXYLOXY)BENZIMIDAMIDE HYDROCHLORIDE] | 190 | 52.1 | 94 | 5.3 | 20.4 |  | 
CCCCCOc1ccc(C(=N)N)cc1 [4-(PENTYLOXY)BENZIMIDAMIDE HYDROCHLORIDE] | 1360 |  |  |  |  |  | 
CCCCOc1ccc(C(=N)N)cc1 [4-BUTOXYBENZIMIDAMIDE HYDROCHLORIDE] | 3530 |  |  |  |  |  | 
CCOc1ccc(C(=N)N)cc1 [4-ETHOXYBENZIMIDAMIDE HYDROCHLORIDE] | > 1900 | 24.4 | 57.1 |  | 18.5 | inactive | 
CC(C)Oc1ccc(C(=N)N)cc1 [4-ISOPROPOXYBENZIMIDAMIDE HYDROCHLORIDE] | > 1670 |  |  |  |  |  | 
COc1ccc(C(=N)N)cc1 [4-METHOXYBENZIMIDAMIDE HYDROCHLORIDE] | > 2080 | 18.3 | 48.5 | 16.2 | 6.9 |  | 
CCCOc1ccc(C(=N)N)cc1 [4-PROPOXYBENZIMIDAMIDE HYDROCHLORIDE] | > 1670 |  |  |  |  |  | 
N=C(N)c1ccc(OCCCCCOc2ccc(C(=N)N)cc2)cc1 [PENTAMIDINE ISETHIONATE] | 350 | 59.6 | 90.9 | 12.6 | 22.9 |  | 382
